Source: the supplement of paper PMC10307832

Experiments:
Assay in all cases: relative viability (nuclei count vs DMSO), 5 days (fraction); higher = more cells survive
Sunitinib + Crizotinib = compound: CCN(CC)CCNC(=O)c1c(C)[nH]c(/C=C2\C(=O)Nc3ccc(F)cc32)c1C [Sunitinib] + C[C@@H](Oc1cc(-c2cnn(C3CCNCC3)c2)cnc1N)c1c(Cl)ccc(F)c1Cl [Crizotinib] (partner 1 µM)
Summary of the method: (§1)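 Dosing by pin tool came one day after lung cancer cell lines were seeded in 1536-well plates, using either one drug or a fixed anchor-drug dose plus five library-drug doses (not always all listed) in √10 steps. After 5 days, nuclei were counted on 4× images. Relative viability is treated-well nuclei count divided by vehicle-well nuclei count, and values are medians of duplicate plates.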

Sunitinib + Lapatinib = compound: CCN(CC)CCNC(=O)c1c(C)[nH]c(/C=C2\C(=O)Nc3ccc(F)cc32)c1C [Sunitinib] + CS(=O)(=O)CCNCc1ccc(-c2ccc3ncnc(Nc4ccc(OCc5cccc(F)c5)c(Cl)c4)c3c2)o1 [Lapatinib] (partner 2 µM)
Summary of the method: as §1

Sunitinib + Decitabine = compound: CCN(CC)CCNC(=O)c1c(C)[nH]c(/C=C2\C(=O)Nc3ccc(F)cc32)c1C [Sunitinib] + Nc1ncn([C@H]2C[C@H](O)[C@@H](CO)O2)c(=O)n1 [Decitabine] (partner 2 µM)
Summary of the method: as §1

Sunitinib + Tozasertib = compound: CCN(CC)CCNC(=O)c1c(C)[nH]c(/C=C2\C(=O)Nc3ccc(F)cc32)c1C [Sunitinib] + Cc1cc(Nc2cc(N3CCN(C)CC3)nc(Sc3ccc(NC(=O)C4CC4)cc3)n2)n[nH]1 [Tozasertib] (partner 0.1 µM)
Summary of the method: as §1

Row | Cell Line | relative viability (Sunitinib + Crizotinib; first compound 0.02 µM) | relative viability (Sunitinib + Crizotinib; first compound 0.06325 µM) | relative viability (Sunitinib + Crizotinib; first compound 0.2 µM) | relative viability (Sunitinib + Crizotinib; first compound 0.6325 µM) | relative viability (Sunitinib + Crizotinib; first compound 2 µM) | relative viability (Sunitinib + Lapatinib; first compound 0.02 µM) | relative viability (Sunitinib + Lapatinib; first compound 0.06325 µM) | relative viability (Sunitinib + Lapatinib; first compound 2 µM) | relative viability (Sunitinib + Decitabine; first compound 0.02 µM) | relative viability (Sunitinib + Decitabine; first compound 0.06325 µM) | relative viability (Sunitinib + Decitabine; first compound 0.2 µM) | relative viability (Sunitinib + Decitabine; first compound 0.6325 µM) | relative viability (Sunitinib + Decitabine; first compound 2 µM) | relative viability (Sunitinib + Tozasertib; first compound 0.02 µM) | relative viability (Sunitinib + Tozasertib; first compound 0.06325 µM) | relative viability (Sunitinib + Tozasertib; first compound 0.2 µM) | relative viability (Sunitinib + Tozasertib; first compound 0.6325 µM) | relative viability (Sunitinib + Tozasertib; first compound 2 µM) | relative viability (Sunitinib + Lapatinib; first compound 0.2 µM) | relative viability (Sunitinib + Lapatinib; first compound 0.6325 µM)
1 | RERF-LC-KJ | 0.802 | 0.838 | 0.934 | 0.786 | 0.855 | 0.887 | 0.844 | 0.828 | 0.713 | 0.743 | 0.651 | 0.683 | 0.777 | 0.508 | 0.487 | 0.547 | 0.47 | 0.541 | – | –
2 | SK-LU-1 | 0.902 | 0.815 | 0.969 | 0.884 | 0.67 | 0.942 | 0.853 | 0.809 | 0.571 | 0.688 | 0.635 | 0.651 | 0.603 | 0.377 | 0.424 | 0.433 | 0.379 | 0.332 | 1.06 | 1.02
3 | SK-MES-1 | 0.928 | 0.996 | 1.07 | 1.12 | 0.959 | 0.471 | 0.502 | 0.419 | 0.345 | 0.369 | 0.368 | 0.389 | 0.379 | 0.892 | – | 0.979 | 1 | – | 0.487 | 0.481
4 | SW 1573 | 0.736 | 0.855 | – | 0.976 | 0.792 | 1.19 | 1.3 | – | 0.403 | 0.508 | 0.556 | 0.62 | 0.554 | 0.153 | 0.22 | 0.205 | 0.155 | 0.195 | 1.31 | 1.14
5 | UMC-11 | 0.578 | 0.569 | 0.571 | 0.692 | 0.556 | 0.984 | – | 0.967 | 0.553 | 0.551 | 0.583 | 0.737 | 0.597 | 0.206 | 0.207 | 0.198 | 0.199 | 0.197 | 1.07 | 1.03
